Laboratory results reported in publication PMC10262914 (Bioorganic chemistry, 2022).
Converted amounts (≈) assume the structure as drawn. “And” between values parts separate entries of the source, which are not always exact repeats. Equal values may be shown once. Read-outs that look alike come from different tables or passages of the source.

How the values were obtained:
[1] = tested on: Mycobacterium tuberculosis H37Rv; assay: Alamar blue metabolic readout assay; format: cell-based; conditions: for GAS MIC: M. tuberculosis H37Rv, GAS media; for MIC: Mycobacterium tuberculosis, H37RV, read-out: GAS MIC
[2] = tested on: VERO cells (kidney epithelial cells); assay: Toxicity against VERO cells; format: cell-based; conditions: Chlorocebus sabaeus, Vero, read-out: Vero IC50, toxicity against Vero cells
[3] = tested on: Mycobacterium tuberculosis H37Rv; assay: Alamar blue metabolic readout assay; format: cell-based; conditions: for MIC: Mycobacterium tuberculosis, H37RV, read-out: 7H12 MIC; for 7H12 MIC: M. tuberculosis H37Rv, 7H12 media
[4] = tested on: Mycobacterium tuberculosis H37Rv; assay: Low oxygen recovery assay; format: cell-based; conditions: Mycobacterium tuberculosis, H37RV, read-out: LORA MIC
[5] = rat, microsomes
in vitro [6] = conditions: rat, microsomes, pH 7.4
in vitro [7] = conditions: monkey, microsomes, pH 7.4
in vitro [8] = conditions: human, microsomes, pH 7.4
[9] = mouse, microsomes
in vitro [10] = conditions: dog, microsomes, pH 7.4
[11] = dog, microsomes
in vitro [12] = conditions: mouse, microsomes, pH 7.4
[13] = microsomes
[14] = human, microsomes
[15] = tested on: Mycobacterium tuberculosis H37Rv; assay: Alamar blue assay, MIC stated as range over GAS and 7H12 media; format: cell-based; conditions: H37Rv

Row | Structure (SMILES) | GAS MIC [1] | MIC [1] | IC50 [2] | MIC [3] | MIC [4] | 7H12 MIC [3] | other results
1 | [2H]c1c(C([2H])([2H])[2H])c([2H])n2c(C(=O)NCc3ccc(F)cc3)c(C)nc2c1[2H] [Compound 29, N-(4-Fluorobenzyl)-2-methyl-6-(methyl-d3)imidazo[1,2-a]pyridine-5,7,8-d3–3-carboxamide] | 0.0233 ± 0.0005 µM | 0.0233 µM (≈ 7.07 ng/mL) | > 10 µM | 0.11 ± 0.0118 µM (≈ 33.4 ng/mL) | > 10 µM | – | –
2 | [2H]c1c(C([2H])([2H])[2H])c([2H])n2c(C(=O)NCc3ccc(C(F)(F)F)cc3)c(C)nc2c1[2H] [Compound 30, 2-Methyl-6-(methyl-d3)-N-(4-(trifluoromethyl)benzyl)imidazo [1,2-a]pyridine-5,7,8-d3-3-carboxamide] | 0.0091 ± 0.0058 µM | 0.0091 µM (≈ 3.22 ng/mL) | > 50 µM | 0.0038 ± 0.0013 µM (≈ 1.34 ng/mL) | > 10 µM | – | CLint [5]: 28 mL/min/g protein; half-life at 2 μM (in vitro [6]): 50 min; half-life at 2 μM (in vitro [7]): 12 min; half-life at 2 μM (in vitro [8]): 53 min; CLint [9]: 70 ml/min/g protein; half-life at 2 μM (in vitro [10]): 22 min; CLint [11]: 64 mL/min/g protein; half-life at 2 μM (in vitro [12]): 20 min; CLint [13]: 116 ml/min/g protein; CLint [14]: 26 ml/min/g protein
3 | [2H]c1c(C([2H])([2H])[2H])c([2H])n2c(C(=O)NCc3ccc(Cl)cc3)c(C)nc2c1[2H] [Compound 31, N-(4-Chlorobenzyl)-2-methyl-6-(methyl-d3)imidazo[1,2-a]pyridine-5,7,8-d3-3-carboxamide] | 0.012 ± 0.0015 µM | 0.012 µM (≈ 3.84 ng/mL) | > 10 µM | 0.0231 µM (≈ 7.39 ng/mL) | 7.09 µM (≈ 2270 ng/mL) | 0.0231 ± 0.0071 µM | –
4 | [2H]c1c(C([2H])([2H])[2H])c([2H])n2c(C(=O)NCc3ccc(S(F)(F)(F)(F)F)cc3)c(C)nc2c1[2H] [Compound 32, 2-Methyl-6-(methyl-d3)-N-(4-(pentafluoro-λ^6-sulfaneyl)benzyl) imidazo[1,2-a]pyridine-5,7,8-d3-3-carboxamide] | 0.0029 µM and 0.0029 ± 0.0005 µM | – | – | – | – | 0.0059 µM and 0.0059 ± 0.0003 µM | MIC (range over both media) [15]: 0.003 to 0.006 µM
5 | [2H]c1c(C([2H])([2H])[2H])c([2H])n2c(C(=O)NCc3ccc(S(C)(=O)=O)cc3)c(C)nc2c1[2H] [Compound 33, 2-Methyl-6-(methyl-d3)-N-(4-(methylsulfonyl)benzyl)imidazo[1,2-a]pyridine-5,7,8-d3-3-carboxamide] | – | 0.174 ± 0.0269 µM (≈ 63.2 ng/mL) | > 10 µM | 0.212 ± 0.0282 µM (≈ 77.1 ng/mL) | > 10 µM | – | MIC (range over both media) [15]: 0.174 to 0.212 µM
6 | [2H]c1c(C([2H])([2H])[2H])c([2H])n2c(C(=O)NCc3ccc(OC(F)(F)F)cc3)c(C)nc2c1[2H] [Compound 34, 2-Methyl-6-(methyl-d3)-N-(4-(trifluoromethoxy)benzyl)imidazo [1,2-a]pyridine-5,7,8-d3-3-carboxamide] | 0.0022 ± 0.0004 µM | 0.0022 µM (≈ 0.813 ng/mL) | > 50 µM | 0.0055 µM (≈ 2.03 ng/mL) | > 5 µM | 0.0055 ± 0.0018 µM | –
7 | [2H]c1c(C([2H])([2H])[2H])c([2H])n2c(C(=O)NCc3ccc(OC)cc3)c(C)nc2c1[2H] [Compound 37, N-(4-Methoxybenzyl)-2-methyl-6-(methyl-d3)imidazo[1,2-a] pyridine-5,7,8-d3-3-carboxamide] | 0.0245 ± 0.0005 µM | 0.0245 µM (≈ 7.73 ng/mL) | > 10 µM | 0.0354 µM (≈ 11.2 ng/mL) | > 10 µM | 0.0354 ± 0.01 µM | –
8 | [2H]c1c(C([2H])([2H])[2H])c([2H])n2c(C(=O)NCc3ccc(OCC)cc3)c(C)nc2c1[2H] [Compound 38, N-(4-Ethoxybenzyl)-2-methyl-6-(methyl-d3)imidazo[1,2-a] pyridine-5,7,8-d3-3-carboxamide] | 0.0092 ± 0.0013 µM | 0.0092 µM (≈ 3.03 ng/mL) | – | 0.0236 ± 0.0104 µM (≈ 7.77 ng/mL) | – | – | –
9 | [2H]c1c(C([2H])([2H])[2H])c([2H])n2c(C(=O)NCc3ccc4c(c3)CCCO4)c(C)nc2c1[2H] [Compound 39, N-(Chroman-6-ylmethyl)-2-methyl-6-(methyl-d3)imidazo[1,2-a] pyridine-5,7,8-d3-3-carboxamide] | 0.0225 ± 0.0018 µM | 0.0225 µM (≈ 7.68 ng/mL) | – | 0.0072 µM (≈ 2.46 ng/mL) | – | 0.0072 ± 0.0004 µM | –
10 | [2H]c1c(C([2H])([2H])[2H])c([2H])n2c(C(=O)NCc3ccc4c(c3)OCCO4)c(C)nc2c1[2H] [Compound 40, N-((2,3-Dihydrobenzo[b][1,4]dioxin-6-yl)methyl)-2-methyl-6-(methyl-d3)imidazo[1,2-a]pyridine-5,7,8-d3-3-carboxamide] | 0.0101 ± 0.001 µM | 0.0101 µM (≈ 3.47 ng/mL) | – | 0.0051 µM (≈ 1.75 ng/mL) | – | 0.0051 ± 0.0016 µM | –
